Organism: Rattus norvegicus
Experiment: Open TG-GATES - Regimen: Daily Repeat
Assay type: toxicity, organism-based, Sprague-Dawley
Parameters: regimen Daily Repeat, gender Male, age 6 weeks
Conditions: in vivo, po, route gavage; for APTT / Bas / Eos / Fbg / Hb / Ht / Lym / MCH / MCHC / MCV / Mono / Neu / PT / Plat / RBC / Ret / WBC: tissue Blood; for KIDNEY_L / KIDNEY_R / KIDNEY_TOTAL: tissue Kidney; for LIVER: tissue Liver; for A/G / ALP / ALT / AST / BUN / CRE / Ca / Cl / DBIL / GLC / IP / K / LDH / Na / PL / RALB / TBIL / TC / TG / TP / gamma-GTP: tissue Plasma
[1] = 0 mg/kg, 72 h, dose level Control, time 3 day
[2] = 0 mg/kg, […], dose level Control, time 7 day
[3] = 0 mg/kg, […], dose level Control, time 14 day
[4] = 0 mg/kg, […], dose level Control, time 28 day
[5] = 5 mg/kg, 72 h, dose level Low, time 3 day
[6] = 5 mg/kg, […], dose level Low, time 7 day
[7] = 5 mg/kg, […], dose level Low, time 14 day
[8] = 5 mg/kg, […], dose level Low, time 28 day

## CC(=N)S [THIOACETAMIDE]
[1]
  TERMINAL_BW: 229.8 g
  APTT: 17 s
  Bas: 0%
  Eos: 1%
  Fbg: 232.2 mg/dL
  Hb: 13.8 g/dL
  Ht: 42.6%
  Lym: 74.8%
  MCH: 21.2 pg
  MCHC: 32.5%
  MCV: 65.3 fL
  Mono: 8%
  Neu: 16.4%
  PT: 11.5 s
  Plat: 111.4 x10_4/uL
  RBC: 652.8 x10_4/ul
  Ret: 7%
  WBC: 125.1 x10_2/uL
  KIDNEY_L: 1 g
  KIDNEY_R: 1 g
  KIDNEY_TOTAL: 2 g
  LIVER: 10.7 g
  A/G: 2.1
  ALP: 1014.4 IU/L
  ALT: 31 IU/L
  AST: 62.2 IU/L
  BUN: 17 mg/dL
  CRE: 0.6 mg/dL
  Ca: 10.4 mg/dL
  Cl: 104.2 meq/L
  DBIL: 0.018 mg/dL
  GLC: 196.6 mg/dL
  IP: 7.6 mg/dL
  K: 4.9 meq/L
  LDH: 88 IU/L
  Na: 137.6 meq/L
  PL: 157.4 mg/dL
  RALB: 4 g/dL
  TBIL: 0.4 mg/dL
  TC: 80.4 mg/dL
  TG: 106.6 mg/dL
  TP: 5.8 g/dL
  gamma-GTP: 1 IU/L
[2]
  TERMINAL_BW: 254.8 g
  APTT: 17.3 s
  Bas: 0%
  Eos: 1%
  Fbg: 226.2 mg/dL
  Hb: 13.8 g/dL
  Ht: 41.8%
  Lym: 83.6%
  MCH: 20.8 pg
  MCHC: 33%
  MCV: 63.1 fL
  Mono: 4.4%
  Neu: 10.8%
  PT: 11.8 s
  Plat: 111.5 x10_4/uL
  RBC: 661.6 x10_4/ul
  Ret: 5.3%
  WBC: 145.6 x10_2/uL
  KIDNEY_L: 1.1 g
  KIDNEY_R: 1.1 g
  KIDNEY_TOTAL: 2.1 g
  LIVER: 11.8 g
  A/G: 1.8
  ALP: 868.8 IU/L
  ALT: 27.4 IU/L
  AST: 56.8 IU/L
  BUN: 19.4 mg/dL
  CRE: 0.6 mg/dL
  Ca: 10.3 mg/dL
  Cl: 104.4 meq/L
  DBIL: 0.016 mg/dL
  GLC: 190.2 mg/dL
  IP: 7.1 mg/dL
  K: 5.2 meq/L
  LDH: 79 IU/L
  Na: 136.2 meq/L
  PL: 154.6 mg/dL
  RALB: 3.9 g/dL
  TBIL: 0.3 mg/dL
  TC: 75 mg/dL
  TG: 145.8 mg/dL
  TP: 6.1 g/dL
  gamma-GTP: 1 IU/L
[3]
  TERMINAL_BW: 312.2 g
  APTT: 17.4 s
  Bas: 0%
  Eos: 0.8%
  Fbg: 223.8 mg/dL
  Hb: 14.6 g/dL
  Ht: 44.1%
  Lym: 81%
  MCH: 20.2 pg
  MCHC: 33.1%
  MCV: 61.1 fL
  Mono: 5.8%
  Neu: 12.6%
  PT: 11.8 s
  Plat: 101.4 x10_4/uL
  RBC: 722.8 x10_4/ul
  Ret: 4.5%
  WBC: 145.6 x10_2/uL
  KIDNEY_L: 1.2 g
  KIDNEY_R: 1.2 g
  KIDNEY_TOTAL: 2.3 g
  LIVER: 13.8 g
  A/G: 2
  ALP: 716 IU/L
  ALT: 32.2 IU/L
  AST: 64.8 IU/L
  BUN: 18.6 mg/dL
  CRE: 0.6 mg/dL
  Ca: 10.1 mg/dL
  Cl: 103 meq/L
  DBIL: 0.002 mg/dL
  GLC: 181.6 mg/dL
  IP: 7.1 mg/dL
  K: 4.7 meq/L
  LDH: 76 IU/L
  Na: 134.8 meq/L
  PL: 169 mg/dL
  RALB: 4.1 g/dL
  TBIL: 0.3 mg/dL
  TC: 81.6 mg/dL
  TG: 158.6 mg/dL
  TP: 6.1 g/dL
  gamma-GTP: 1.4 IU/L
[4]
  TERMINAL_BW: 377.5 g
  APTT: 17.5 s
  Bas: 0%
  Eos: 1%
  Fbg: 248.6 mg/dL
  Hb: 15.9 g/dL
  Ht: 46.8%
  Lym: 86.2%
  MCH: 19.7 pg
  MCHC: 33.9%
  MCV: 58 fL
  Mono: 4%
  Neu: 9.2%
  PT: 10.8 s
  Plat: 104.1 x10_4/uL
  RBC: 807.6 x10_4/ul
  Ret: 2.8%
  WBC: 194 x10_2/uL
  KIDNEY_L: 1.4 g
  KIDNEY_R: 1.4 g
  KIDNEY_TOTAL: 2.7 g
  LIVER: 15.2 g
  A/G: 1.9
  ALP: 629 IU/L
  ALT: 29.4 IU/L
  AST: 63 IU/L
  BUN: 18.8 mg/dL
  CRE: 0.6 mg/dL
  Ca: 10.1 mg/dL
  Cl: 103 meq/L
  DBIL: 0 mg/dL
  GLC: 179.4 mg/dL
  IP: 6.8 mg/dL
  K: 4.5 meq/L
  LDH: 96.4 IU/L
  Na: 135.4 meq/L
  PL: 172.8 mg/dL
  RALB: 4.1 g/dL
  TBIL: 0.2 mg/dL
  TC: 83 mg/dL
  TG: 174.6 mg/dL
  TP: 6.3 g/dL
  gamma-GTP: 1.2 IU/L
[5]
  TERMINAL_BW: 228.6 g
  APTT: 16.9 s
  Bas: 0%
  Eos: 1%
  Fbg: 234 mg/dL
  Hb: 13.6 g/dL
  Ht: 41.4%
  Lym: 78.8%
  MCH: 21 pg
  MCHC: 32.9%
  MCV: 63.8 fL
  Mono: 8.2%
  Neu: 12.2%
  PT: 11.6 s
  Plat: 111 x10_4/uL
  RBC: 649.4 x10_4/ul
  Ret: 6.6%
  WBC: 139.8 x10_2/uL
  KIDNEY_L: 1 g
  KIDNEY_R: 1.1 g
  KIDNEY_TOTAL: 2.1 g
  LIVER: 11.7 g
  A/G: 2.1
  ALP: 900 IU/L
  ALT: 28 IU/L
  AST: 58.8 IU/L
  BUN: 16.2 mg/dL
  CRE: 0.5 mg/dL
  Ca: 10.7 mg/dL
  Cl: 104.8 meq/L
  DBIL: 0.004 mg/dL
  GLC: 192.6 mg/dL
  IP: 7.8 mg/dL
  K: 4.7 meq/L
  LDH: 95.2 IU/L
  Na: 137 meq/L
  PL: 159.8 mg/dL
  RALB: 4 g/dL
  TBIL: 0.3 mg/dL
  TC: 83.2 mg/dL
  TG: 123.2 mg/dL
  TP: 5.9 g/dL
  gamma-GTP: 2 IU/L
[6]
  TERMINAL_BW: 252.6 g
  APTT: 16.4 s
  Bas: 0%
  Eos: 1%
  Fbg: 229.2 mg/dL
  Hb: 13.8 g/dL
  Ht: 41.5%
  Lym: 82%
  MCH: 20.9 pg
  MCHC: 33.3%
  MCV: 62.9 fL
  Mono: 6.6%
  Neu: 10.2%
  PT: 12.1 s
  Plat: 111.2 x10_4/uL
  RBC: 660.4 x10_4/ul
  Ret: 5.3%
  WBC: 155.6 x10_2/uL
  KIDNEY_L: 1 g
  KIDNEY_R: 1.1 g
  KIDNEY_TOTAL: 2.1 g
  LIVER: 12.3 g
  A/G: 1.9
  ALP: 742.6 IU/L
  ALT: 31.8 IU/L
  AST: 56 IU/L
  BUN: 18 mg/dL
  CRE: 0.5 mg/dL
  Ca: 10.5 mg/dL
  Cl: 105 meq/L
  DBIL: 0.008 mg/dL
  GLC: 186.6 mg/dL
  IP: 7.6 mg/dL
  K: 5.1 meq/L
  LDH: 84.8 IU/L
  Na: 135.2 meq/L
  PL: 160 mg/dL
  RALB: 3.9 g/dL
  TBIL: 0.3 mg/dL
  TC: 76.4 mg/dL
  TG: 167.4 mg/dL
  TP: 6 g/dL
  gamma-GTP: 1.4 IU/L
[7]
  TERMINAL_BW: 308.5 g
  APTT: 17.1 s
  Bas: 0%
  Eos: 0.8%
  Fbg: 231.8 mg/dL
  Hb: 14.6 g/dL
  Ht: 44.1%
  Lym: 83.6%
  MCH: 19.8 pg
  MCHC: 33.1%
  MCV: 59.9 fL
  Mono: 6%
  Neu: 10%
  PT: 12.3 s
  Plat: 102 x10_4/uL
  RBC: 736.2 x10_4/ul
  Ret: 3.9%
  WBC: 165.2 x10_2/uL
  KIDNEY_L: 1.2 g
  KIDNEY_R: 1.2 g
  KIDNEY_TOTAL: 2.4 g
  LIVER: 13.6 g
  A/G: 2
  ALP: 870.6 IU/L
  ALT: 29.8 IU/L
  AST: 62 IU/L
  BUN: 18.2 mg/dL
  CRE: 0.6 mg/dL
  Ca: 10.2 mg/dL
  Cl: 104.6 meq/L
  DBIL: 0.006 mg/dL
  GLC: 185.4 mg/dL
  IP: 6.8 mg/dL
  K: 5 meq/L
  LDH: 78.6 IU/L
  Na: 134.2 meq/L
  PL: 135.8 mg/dL
  RALB: 4.1 g/dL
  TBIL: 0.4 mg/dL
  TC: 61.6 mg/dL
  TG: 156.8 mg/dL
  TP: 6.2 g/dL
  gamma-GTP: 2 IU/L
[8]
  TERMINAL_BW: 375.1 g
  APTT: 17 s
  Bas: 0%
  Eos: 0.8%
  Fbg: 242.4 mg/dL
  Hb: 15 g/dL
  Ht: 44.9%
  Lym: 85.2%
  MCH: 19.6 pg
  MCHC: 33.5%
  MCV: 58.5 fL
  Mono: 3.6%
  Neu: 10.4%
  PT: 11.1 s
  Plat: 111.7 x10_4/uL
  RBC: 767.8 x10_4/ul
  Ret: 3%
  WBC: 184.6 x10_2/uL
  KIDNEY_L: 1.3 g
  KIDNEY_R: 1.4 g
  KIDNEY_TOTAL: 2.7 g
  LIVER: 16.5 g
  A/G: 1.6
  ALP: 613.4 IU/L
  ALT: 25.8 IU/L
  AST: 54.6 IU/L
  BUN: 21.6 mg/dL
  CRE: 0.6 mg/dL
  Ca: 10.2 mg/dL
  Cl: 103 meq/L
  DBIL: 0 mg/dL
  GLC: 164 mg/dL
  IP: 6.9 mg/dL
  K: 4.6 meq/L
  LDH: 90.2 IU/L
  Na: 135.2 meq/L
  PL: 135.6 mg/dL
  RALB: 3.9 g/dL
  TBIL: 0.3 mg/dL
  TC: 60.8 mg/dL
  TG: 131.8 mg/dL
  TP: 6.4 g/dL
  gamma-GTP: 1.6 IU/L
